Measured values from patent US8664408B2, “Synthesis process, and crystalline form of 4-{3-[cis-hexahydrocyclopenta[c]pyrrol-2(1H)-yl]proxy}benzamide hydrochloride and pharmaceutical compositions containing it” (Les Laboratoires Servier, priority 2011, dated 2014).

What was measured:
[1] = tested on: central nervous system; assay: pharmacological study
From the text: Neurodegenerative diseases more especially targeted are Alzheimer's disease, Parkinson's disease, Pick's disease, Korsakoff's disease, Lewy body dementias, frontal and subcortical dementias, frontotemporal dementias and vascular dementias.

[2] = dissolution of crystalline form I; type: physicochemical
From the text: Obtaining this crystalline form has the advantage of allowing especially rapid and efficient filtration and also the preparation of pharmaceutical formulations having a consistent and reproducible composition, which is especially advantageous when those formulations are intended for oral administration.

[3] = storage stability of crystalline form I; type: physicochemical; conditions: periods of up to 18 months
From the text: The form thereby obtained is sufficiently stable to allow its storage for an extended period without particular conditions for temperature, light, humidity or oxygen levels.

Row | stability on storage ([3]; at 25° C. with a humidity level of 60% in a double bag of polyethylene) | stability on storage ([3]; at 30° C. with a humidity level of 65% in a double bag of polyethylene) | stability on storage ([3]; at 30° C. with a humidity level of 85% in a double bag of polyethylene) | Compound | activity on the central nervous system [1] | dissolution properties [2]
1 | – | – | – | NC(=O)c1ccc(OCCCN2C[C@H]3CCC[C@H]3C2)cc1 [form I of its free base, 4-{3-[cis-Hexahydrocyclopenta[c]pyrrol-2(1H)-yl]propoxy}benzamide] | substantial activity | –
2 | very stable | very stable | very stable | Cl.NC(=O)c1ccc(OCCCN2C[C@H]3CCC[C@H]3C2)cc1 [4-{3-[cis-Hexahydrocyclopenta[c]pyrrol-2(1H)-yl]propoxy}benzamide hydrochloride] | substantial activity | noteworthy properties of immediate dissolution
